Experimental data published in the NIST ThermoML archive (doi:10.1016/j.jct.2008.01.009).

Tests used:
[1] = Molar enthalpy of transition or fusion; conditions: Crystal 1; Adiabatic calorimetry
[2] = molar heat capacity at saturation pressure

C1=Cc2ccccc2CC1 [1,2-dihydronaphthalene]
Conditions	Molar enthalpy of transition or fusion [kJ/mol]
[1]	10.543

[2]
Conditions	molar heat capacity [J/K/mol]
5.476 K, Crystal 3, Vacuum adiabatic calorimetry	0.37
6.388 K, Crystal 3, Vacuum adiabatic calorimetry	0.64
7.291 K, Crystal 3, Vacuum adiabatic calorimetry	0.989
8.25 K, Crystal 3, Vacuum adiabatic calorimetry	1.48
9.249 K, Crystal 3, Vacuum adiabatic calorimetry	2.12
10.3 K, Crystal 3, Vacuum adiabatic calorimetry	2.94
11.47 K, Crystal 3, Vacuum adiabatic calorimetry	3.91
12.77 K, Crystal 3, Vacuum adiabatic calorimetry	5.18
14.21 K, Crystal 3, Vacuum adiabatic calorimetry	6.67
15.81 K, Crystal 3, Vacuum adiabatic calorimetry	8.431
17.59 K, Crystal 3, Vacuum adiabatic calorimetry	10.49
19.57 K, Crystal 3, Vacuum adiabatic calorimetry	12.77
21.76 K, Crystal 3, Vacuum adiabatic calorimetry	15.28
24.19 K, Crystal 3, Vacuum adiabatic calorimetry	18
26.87 K, Crystal 3, Vacuum adiabatic calorimetry	20.93
29.83 K, Crystal 3, Vacuum adiabatic calorimetry	23.95
33.12 K, Crystal 3, Vacuum adiabatic calorimetry	27.11
36.82 K, Crystal 3, Vacuum adiabatic calorimetry	30.48
40.93 K, Crystal 3, Vacuum adiabatic calorimetry	33.95
45.51 K, Crystal 3, Vacuum adiabatic calorimetry	37.56
50.62 K, Crystal 3, Vacuum adiabatic calorimetry	41.31
55.37 K, Crystal 3, Vacuum adiabatic calorimetry	44.29
56.32 K, Crystal 3, Vacuum adiabatic calorimetry	44.86
60.82 K, Crystal 3, Vacuum adiabatic calorimetry	47.66
66.99 K, Crystal 3, Vacuum adiabatic calorimetry	51.14
73.79 K, Crystal 3, Vacuum adiabatic calorimetry	54.73
81.31 K, Crystal 3, Vacuum adiabatic calorimetry	58.53
89.62 K, Crystal 3, Vacuum adiabatic calorimetry	62.62
92.5 K, Crystal 3, Vacuum adiabatic calorimetry	64
98.63 K, Crystal 3, Vacuum adiabatic calorimetry	66.92
101.72 K, Crystal 3, Vacuum adiabatic calorimetry	68.45
108.13 K, Crystal 3, Vacuum adiabatic calorimetry	71.57
111.45 K, Crystal 3, Vacuum adiabatic calorimetry	73.19
116.48 K, Crystal 3, Vacuum adiabatic calorimetry	75.72
121.2 K, Crystal 3, Vacuum adiabatic calorimetry	78.05
122.5 K, Crystal 3, Vacuum adiabatic calorimetry	78.89
127.59 K, Crystal 3, Vacuum adiabatic calorimetry	81.65
129.07 K, Crystal 3, Vacuum adiabatic calorimetry	82.45
132.84 K, Crystal 3, Vacuum adiabatic calorimetry	84.88
138.14 K, Crystal 3, Vacuum adiabatic calorimetry	89.05
143.36 K, Crystal 3, Vacuum adiabatic calorimetry	92.96
148.64 K, Crystal 2	97.43
153.85 K, Crystal 2	100.66
159.03 K, Crystal 2	103.99
164.19 K, Crystal 2	106.64
169.6 K, Crystal 2	109.63
171.24 K, Crystal 2	110.54
175.29 K, Crystal 2	112.56
178.78 K, Crystal 2	114.67
180.37 K, Crystal 2	115.57
180.88 K, Crystal 2	115.84
186.07 K, Crystal 2	118.77
186.76 K, Crystal 2	119.11
187.6 K, Crystal 2	120.08
192.71 K, Crystal 2	124.28
192.99 K, Crystal 2	123.59
197.84 K, Crystal 1, Small (less than 1 g) adiabatic calorimetry	128.42
199.44 K, Crystal 1, Small (less than 1 g) adiabatic calorimetry	129.23
202.96 K, Crystal 1, Small (less than 1 g) adiabatic calorimetry	130.85
206.23 K, Crystal 1, Small (less than 1 g) adiabatic calorimetry	132.6
208.77 K, Crystal 1, Small (less than 1 g) adiabatic calorimetry	134.08
213.6 K, Crystal 1, Small (less than 1 g) adiabatic calorimetry	137.01
215.96 K, Crystal 1, Small (less than 1 g) adiabatic calorimetry	138.43
219.37 K, Crystal 1, Small (less than 1 g) adiabatic calorimetry	140.75
230.97 K, Crystal 1, Small (less than 1 g) adiabatic calorimetry	148.65
238.26 K, Crystal 1, Small (less than 1 g) adiabatic calorimetry	153.96
243.92 K, Crystal 1, Small (less than 1 g) adiabatic calorimetry	158.36
252.96 K, Crystal 1, Small (less than 1 g) adiabatic calorimetry	166.39
255.1 K, Crystal 1, Small (less than 1 g) adiabatic calorimetry	168.26

[2], Liquid, Small (less than 1 g) adiabatic calorimetry
Conditions	molar heat capacity [J/K/mol]
271.21 K	199.33
272.18 K	199.68
272.24 K	199.7
280.33 K	202.71
288.36 K	205.77
291.65 K	207.11
303.09 K	211.59
318.19 K	217.77
333.27 K	224.04
348.76 K	230.58
364.66 K	237.34
380.18 K	243.96
